Test results taken from the supplement of paper PMC10883282.

How the values were obtained:
Assay in all cases: relative viability vs DMSO control (72 h) (fraction); higher = more viable cells
RD-ES = tested on: RD-ES
Outline: (§1)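 ATPLite readings, expressed as percent growth and averaged over up to triplicate wells, provided relative viability. Before reading, sarcoma cell lines seeded in 384-well plates to reach 80–90% confluence received 2.5 µl of serially diluted compound after 24 h, from source plates of 10 mM to 0.0002 mM. Plates were held 72 h at 37 °C, 5% CO2, with 0.1% DMSO as vehicle and a 5 µM positive control. The data were rescaled to 1 for full and 0 for none.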

HS729 = tested on: HS729
Outline: as §1

RD = tested on: RD
Outline: as §1

HT1080 = tested on: HT1080
Outline: as §1

SW684 = tested on: SW684
Outline: as §1

SW1353 = tested on: SW1353
Outline: as §1

KHOS-240S = tested on: KHOS-240S
Outline: as §1

SYO-1 = tested on: SYO-1
Outline: as §1

KHOS-NP = tested on: KHOS-NP
Outline: as §1

SW872 = tested on: SW872
Outline: as §1

SK-LMS-1 = tested on: SK-LMS-1
Outline: as §1

G401 = tested on: G401
Outline: as §1

COc1cc2ncnc(Nc3ccc(F)c(Cl)c3)c2cc1OCCCN1CCOCC1 [Gefitinib]
Conditions	relative viability
G401, 0.00017 µM	1.01
G401, 0.00051 µM	1
G401, 0.00152 µM	0.9788
G401, 0.00457 µM	0.987
G401, 0.01372 µM	1
G401, 0.04115 µM	0.996
G401, 0.1235 µM	1
G401, 0.3704 µM	0.993
G401, 1.111 µM	0.984
G401, 3.333 µM	0.835
G401, 10 µM	0.582
HS729, 0.00017 µM	0.9733
HS729, 0.00051 µM	0.97
HS729, 0.00152 µM	1.03
HS729, 0.00457 µM	0.947
HS729, 0.01372 µM	1.01
HS729, 0.04115 µM	1.03
HS729, 0.1235 µM	1
HS729, 0.3704 µM	1.01
HS729, 1.111 µM	0.958
HS729, 3.333 µM	0.853
HS729, 10 µM	0.621
HT1080, 0.00017 µM	1.05
HT1080, 0.00051 µM	1.1
HT1080, 0.00152 µM	1.04
HT1080, 0.00457 µM	1.07
HT1080, 0.01372 µM	1.06
HT1080, 0.04115 µM	1.03
HT1080, 0.1235 µM	1.047
HT1080, 0.3704 µM	1.07
HT1080, 1.111 µM	1.05
HT1080, 3.333 µM	1.04
HT1080, 10 µM	0.483
KHOS-240S, 0.00017 µM	1.01
KHOS-240S, 0.00051 µM	1.05
KHOS-240S, 0.00152 µM	1.01
KHOS-240S, 0.00457 µM	1.05
KHOS-240S, 0.01372 µM	1.03
KHOS-240S, 0.04115 µM	1.04
KHOS-240S, 0.1235 µM	1
KHOS-240S, 0.3704 µM	1.03
KHOS-240S, 1.111 µM	1.01
KHOS-240S, 3.333 µM	0.921
KHOS-240S, 10 µM	0.318
KHOS-NP, 0.00017 µM	1.09
KHOS-NP, 0.00051 µM	1.08
KHOS-NP, 0.00152 µM	1.08
KHOS-NP, 0.00457 µM	1.08
KHOS-NP, 0.01372 µM	1.096
KHOS-NP, 0.04115 µM	1.07
KHOS-NP, 0.1235 µM	1.06
KHOS-NP, 0.3704 µM	1.06
KHOS-NP, 1.111 µM	1.08
KHOS-NP, 3.333 µM	1.08
KHOS-NP, 10 µM	0.898
RD, 0.00017 µM	1.03
RD, 0.00051 µM	1.04
RD, 0.00152 µM	1.03
RD, 0.00457 µM	1.04
RD, 0.01372 µM	0.995
RD, 0.04115 µM	1.01
RD, 0.1235 µM	1.03
RD, 0.3704 µM	1.01
RD, 1.111 µM	1.05
RD, 3.333 µM	1.05
RD, 10 µM	0.18
RD-ES, 0.00017 µM	0.944
RD-ES, 0.00051 µM	0.967
RD-ES, 0.00152 µM	0.954
RD-ES, 0.00457 µM	0.965
RD-ES, 0.01372 µM	0.97
RD-ES, 0.04115 µM	0.978
RD-ES, 0.1235 µM	0.973
RD-ES, 0.3704 µM	0.987
RD-ES, 1.111 µM	0.962
RD-ES, 3.333 µM	0.844
RD-ES, 10 µM	0.464
SK-LMS-1, 0.00017 µM	1.07
SK-LMS-1, 0.00051 µM	1.09
SK-LMS-1, 0.00152 µM	1.05
SK-LMS-1, 0.00457 µM	1.08
SK-LMS-1, 0.01372 µM	1.07
SK-LMS-1, 0.04115 µM	1.08
SK-LMS-1, 0.1235 µM	1.06
SK-LMS-1, 0.3704 µM	1.04
SK-LMS-1, 1.111 µM	1.05
SK-LMS-1, 3.333 µM	0.902
SK-LMS-1, 10 µM	0.108
SW684, 0.00017 µM	1.09
SW684, 0.00051 µM	1.16
SW684, 0.00152 µM	1.09
SW684, 0.00457 µM	1.17
SW684, 0.01372 µM	1.1
SW684, 0.04115 µM	1.15
SW684, 0.1235 µM	1.07
SW684, 0.3704 µM	1.16
SW684, 1.111 µM	1.1
SW684, 3.333 µM	1.15
SW684, 10 µM	0.424
SW872, 0.00017 µM	1
SW872, 0.00051 µM	1.02
SW872, 0.00152 µM	1.05
SW872, 0.00457 µM	1.026
SW872, 0.01372 µM	1.03
SW872, 0.04115 µM	1.02
SW872, 0.1235 µM	1.03
SW872, 0.3704 µM	1.04
SW872, 1.111 µM	1.01
SW872, 3.333 µM	0.868
SW872, 10 µM	0.476
SW1353, 0.00017 µM	1.03
SW1353, 0.00051 µM	1.073
SW1353, 0.00152 µM	0.999
SW1353, 0.00457 µM	1.02
SW1353, 0.01372 µM	1.02
SW1353, 0.04115 µM	0.979
SW1353, 0.1235 µM	0.93
SW1353, 0.3704 µM	0.903
SW1353, 1.111 µM	0.928
SW1353, 3.333 µM	0.892
SW1353, 10 µM	0.168
SYO-1, 0.00017 µM	1.01
SYO-1, 0.00051 µM	1.02
SYO-1, 0.00152 µM	0.999
SYO-1, 0.00457 µM	0.998
SYO-1, 0.01372 µM	0.999
SYO-1, 0.04115 µM	0.9815
SYO-1, 0.1235 µM	1
SYO-1, 0.3704 µM	0.983
SYO-1, 1.111 µM	0.955
SYO-1, 3.333 µM	0.829
SYO-1, 10 µM	0.104
